Reference: paper PMC8624133, “10th Trends in Medical Mycology Held on 8 to 11 October 2021, Aberdeen, Scotland, Organized by the European Confederation of Medical Mycology (ECMM)” (Journal of Fungi, 2021)
Values after ≈ are worked out from the molar mass of the structure shown.

Columns and labels:
[1] = tested on: A. fumigatus isolates (ARAF and azole susceptible); assay: Broth microdilution after EUCAST; format: cell-based; settings: Aspergillus fumigatus; range, 16 ARAF and 4 azole susceptible isolates
Protocol: (§1) Materials & Methods: Olorofim activity has been analyzed at different stages (prior adhesion, 4 h, 12 h, 24 h and 48 h after inoculation) of biofilm formation of clinical ARAF strains (n = 16) as well as azole susceptible A. fumigatus isolates (n = 4) by using an XTT assay. Olorofim was applied in concentrations of a total, a half, a quarter and an eighth of the previously determined minimum inhibitory concentrations (MICs) by broth microdilution method after EUCAST.

A. fumigatus biofilm = assay: Antibiofilm activity, XTT assay; format: cell-based, Aspergillus fumigatus
Protocol: as §1

[2] = ECMM multinational study, risk factors for CAPA; format: in vivo, human; settings: critically ill COVID-19 patients in ICU, 592 patients
Text: Methods: The European Confederation of Medical Mycology (ECMM) conducted a multinational study including 20 centers from nine different countries to assess epidemiology, diagnosis, risk factors, treatment and outcome of CAPA. CAPA was defined according to ECMM/ISHAM consensus definitions.

Row | Molecule | MIC [1] [µg/mL] | biofilm reduction (A. fumigatus biofilm; added prior to adhesion (t0) and right after adhesion (t4), compared to non-treated control) | effect on mature biofilm (A. fumigatus biofilm; t24 & t48) | hazard ratio for CAPA [2]
1 | Cc1cc(-c2ccccc2)c(C(=O)C(=O)Nc2ccc(N3CCN(c4ncc(F)cn4)CC3)cc2)n1C [olorofim] | 0.008 to 0.03 (≈ 0.016 to 0.0602 µM) | up to 96% | did not show an effect | 
2 | tocilizumab: tocilizumab received by COVID-19 ICU patients |  |  |  | 2.45
